In US9133104B2 (Chroma Therapeutics Ltd., priority 2005, dated 2015):

Target: T1, histone deacetylase activity (HeLa nuclear extract)
T1 construct: Histone deacetylase activity from crude nuclear extract derived from HeLa cells was used for screening
Test: HDAC fluorescent activity assay (Biomol Fluor de Lys), HeLa nuclear extract
Format: biochemical
Conditions: Fluor de Lys substrate, IC50 range
Description: The ability of compounds to inhibit histone deacetylase activities was measured using the commercially available HDAC fluorescent activity assay from Biomol. In brief, the Fluor de Lys™ substrate, a lysine with an epsilon-amino acetylation, is incubated with the source of histone deacetylase activity (HeLa nuclear extract) in the presence or absence of inhibitor. Deacetylation of the substrate sensitises the substrate to Fluor de Lys™ developer, which generates a fluorophore. Thus, incubation of the substrate with a source of HDAC activity results in an increase in signal that is diminished in the presence of an HDAC inhibitor.
Data are expressed as a percentage of the control, measured in the absence of inhibitor, with background signal being subtracted from all samples, as follows:— % activity=((S^i−B)/(S^o−B))×100 where S^i is the signal in the presence of substrate, enzyme and inhibitor, S^o is the signal in the presence of substrate, enzyme and the vehicle in which the inhibitor is dissolved, and B is the background signal measured in the absence of enzyme.
IC50 values were determined by non-linear regression analysis, after fitting the results of eight data points to the equation for sigmoidal dose response with variable slope (% activity against log concentration of compound), using Graphpad Prism software.
Histone deacetylase activity from crude nuclear extract derived from HeLa cells was used for screening. The preparation, purchased from 4C (Seneffe, Belgium), was prepared from HeLa cells harvested whilst in exponential growth phase. The nuclear extract is prepared according to Dignam JD1983 Nucl. Acid. Res. 11, 1475-1489, snap frozen in liquid nitrogen and stored at −80° C. The final buffer composition was 20 mM Hepes, 100 mM KCl, 0.2 mM EDTA, 0.5 mM DTT, 0.2 mM PMSF and 20% (v/v) glycerol.

Row | SMILES | IC50 [µM]
1 | CC(C)(C)OC[C@H](NCc1cccc(NC(=O)CCCCCCC(=O)NO)c1)C(=O)O [Compound 33, (S)-3-tert-Butoxy-2-[3-(7-hydroxycarbamoyl-heptanoylamino)-benzylamino]-propionic acid] | 0.101 to 1
2 | CC(C)C[C@H](NCc1cccc(NC(=O)CCCCCCC(=O)NO)c1)C(=O)O [Compound 38, (S)-2-[3-(7-Hydroxycarbamoyl-heptanoylamino)-benzylamino]-4-methyl-pentanoic acid] | 0.101 to 1
3 | O=C(CCCCCCC(=O)Nc1cccc(OCCCN[C@@H](Cc2ccccc2)C(=O)O)c1)NO [Compound 76, (S)-2-{3-[3-(7-Hydroxycarbamoyl-heptanoylamino)-phenoxy]-propylamino}-3-phenyl-propionic acid] | < 0.1
4 | O=C(CCCCCCC(=O)Nc1ccc(CN[C@H](C(=O)O)C2CCCCC2)cc1)NO [Compound 87, (S)-Cyclohexyl-[4-(7-hydroxycarbamoyl-heptanoylamino)-benzylamino]-acetic acid] | < 0.1
5 | CC(C)(C)OC[C@H](NCc1ccc(NC(=O)CCCCCCC(=O)NO)cc1)C(=O)O [Compound 90, (S)-3-tert-Butoxy-2-[4-(7-hydroxycarbamoyl-heptanoylamino)-benzylamino]-propionic acid] | 0.101 to 1
6 | O=C(CCCCCCC(=O)Nc1cccc(COC(=O)N[C@@H](Cc2ccccc2)C(=O)O)c1)NO [Compound 95, (S)-2-[3-(7-Hydroxycarbamoyl-heptanoylamino)-benzyloxycarbonylamino]3-phenyl-propionic acid] | 0.101 to 1
7 | CC(C)C[C@H](NC(=O)[C@@H]1Cc2ccc(NC(=O)CCCCCCC(=O)NO)cc2CN1)C(=O)O [Compound 97, (S)-2-{[(S)-7-(7-Hydroxycarbamoyl-heptanoylamino)-1,2,3,4-tetrahydro-isoquinoline-3-carbonyl]-amino}-4-methyl-pentanoic acid] | 0.101 to 1
8 | CC(C)C[C@H](NC(=O)c1ccc(NC(=O)CCCCCCC(=O)NO)cc1)C(=O)O [Compound 99, (S)-2-[4-(7-Hydroxycarbamoyl-heptanoylamino)-benzoylamino]-4-methyl-pentanoic acid] | > 1
9 | O=C(Cc1ccc(OCCCC(=O)N[C@@H](Cc2ccccc2)C(=O)O)cc1)Nc1ccc2sc(C(=O)NO)cc2c1 [Compound 103, (S)-2-(4-{4-[(2-Hydroxycarbamoyl-benzo[b]thiophen-5-ylcarbamoyl)-methyl]-phenoxy}-butyrylamino)-3-phenyl-propionic acid] | < 0.1
10 | O=C(NO)c1cc2ccc(CNCc3ccc(CN[C@@H](Cc4ccccc4)C(=O)O)cc3)cc2s1 [Compound 105, (S)-2-(4-{[(2-Hydroxycarbamoyl-benzo[b]thiophen-6-ylmethyl)-amino]-methyl}-benzylamino)-3-phenyl-propionic] | < 0.1
11 | O=C(NO)c1cc2ccc(CNCc3ccc(CN[C@H](C(=O)O)C4CCCCC4)cc3)cc2s1 [Compound 117, (S)-Cyclohexyl-(4-{[(2-hydroxycarbamoyl-benzo[b]thiophen-6-ylmethyl)-amino]-methyl}-benzylamino)-acetic acid] | < 0.1
12 | O=C(O)CNCc1ccc(CNCc2ccc3cc(C(=O)NO)sc3c2)cc1 [Compound 121, (4-{[(2-Hydroxycarbamoyl-benzo[b]thiophen-6-ylmethyl)-amino]-methyl}-benzylamino)-acetic acid] | < 0.1

Second part, the compound after the results:

Row | IC50 [µM] | SMILES
13 | 0.101 to 1 | O=C(CCCCCCC(=O)Nc1cccc(CN[C@@H](Cc2ccccc2)C(=O)O)c1)NO [Compound 27, (S)-2-[3-(7-Hydroxycarbamoyl-heptanoylamino)-benzylamino]-3-phenyl-propionic acid]
14 | 0.101 to 1 | O=C(CCCCCCC(=O)Nc1cccc(CN[C@@H](CCc2ccccc2)C(=O)O)c1)NO [Compound 30, (S)-2-[3-(7-Hydroxycarbamoyl-heptanoylamino)-benzylamino]-4-phenyl-butyric acid]
15 | 0.101 to 1 | CC(C)C[C@H](NC(=O)c1cccc(NC(=O)CCCCCCC(=O)NO)c1)C(=O)O [Compound 63, (S)-2-[3-(7-Hydroxycarbamoyl-heptanoylamino)-benzoylamino]-4-methyl-pentanoic acid]
16 | < 0.1 | O=C(CCCCCCC(=O)Nc1cccc(CCN[C@H](C(=O)O)c2ccccc2)c1)NO [Compound 72, (S)-{2-[3-(7-Hydroxycarbamoyl-heptanoylamino)-phenyl]-ethylamino}-phenyl-acetic acid]
17 | 0.101 to 1 | O=C(CCCCCCC(=O)Nc1cccc(OCCN[C@@H](Cc2ccccc2)C(=O)O)c1)NO [Compound 74, (S)-2-{2-[3-(7-Hydroxycarbamoyl-heptanoylamino)-phenoxy]-ethylamino}-3-phenyl-propionic acid]
18 | 0.101 to 1 | O=C(CCCCCCC(=O)Nc1cccc(CNC(=O)N[C@H](C(=O)O)c2ccccc2)c1)NO [Compound 80, (S)-{3-[3-(7-Hydroxycarbamoyl-heptanoylamino)-benzyl]-ureido}-phenyl-acetic acid]
19 | 0.101 to 1 | O=C(CCCCCCC(=O)Nc1cccc(CNC(=O)N[C@@H](Cc2ccccc2)C(=O)O)c1)NO [Compound 82, (S)-2-{3-[3-(7-Hydroxycarbamoyl-heptanoylamino)-benzyl]-ureido}-3-phenyl-propionic acid]
20 | 0.101 to 1 | O=C(CCCCCCC(=O)Nc1ccc(CN[C@@H](C(=O)O)c2ccccc2)cc1)NO [Compound 84, (R)-[4-(7-Hydroxycarbamoyl-heptanoylamino)-benzylamino]-phenyl-acetic acid]
21 | < 0.1 | O=C(CCCCCCC(=O)Nc1cccc(OCCCC(=O)N[C@H](C(=O)O)c2ccccc2)c1)NO [Compound 93, (S)-{4-[3-(7-Hydroxycarbamoyl-heptanoylamino)-phenoxy]-butyrylamino}-phenyl-acetic acid]
22 | < 0.1 | O=C(CCCCCCNC(=O)c1cc2cc(CCC(=O)N[C@@H](Cc3ccccc3)C(=O)O)ccc2[nH]1)NO [Compound 101, (S)-2-{3-[2-(6-Hydroxycarbamoyl-hexylcarbamoyl)-1H-indol-5-yl]-propionylamino}-3-phenyl-propionic acid]
23 | 0.101 to 1 | O=C(NO)c1cc2ccc(CNCc3ccc(CN4CCC[C@H]4C(=O)O)cc3)cc2s1 [Compound 112, (S)-1-(4-{[(2-Hydroxycarbamoyl-benzo[b]thiophen-6-ylmethyl)-amino]-methyl}-benzyl)-pyrrolidine-2-carboxylic acid]
24 | 0.101 to 1 | CC(C)(C)SC[C@H](NCc1ccc(CNCc2ccc3cc(C(=O)NO)sc3c2)cc1)C(=O)O [Compound 114, (R)-3-tert-Butylsulfanyl-2-(4-{[(2-hydroxycarbamoyl-benzo[b]thiophen-6-ylmethyl)-amino]-methyl}-benzylamino)-propionic acid]
25 | < 0.1 | C[C@H](NCc1ccc(CNCc2ccc3cc(C(=O)NO)sc3c2)cc1)C(=O)O [Compound 119, (S)-2-(4-{[(2-Hydroxycarbamoyl-benzo[b]thiophen-6-ylmethyl)-amino]-methyl}-benzylamino)-propionic acid]
26 | < 0.1 | CC(C)C[C@H](NCc1ccc(CNCc2ccc3cc(C(=O)NO)sc3c2)cc1)C(=O)O [Compound 123, (S)-2-(4-{[(2-Hydroxycarbamoyl-benzo[b]thiophen-6-ylmethyl)-amino]-methyl}-benzylamino)-4-methyl-pentanoic acid]
27 | < 0.1 | O=C(NO)c1cc2ccc(CNCc3ccc(CN[C@H](C(=O)O)c4ccccc4)cc3)cc2s1 [Compound 125, (S)-(4-{[(2-Hydroxycarbamoyl-benzo[b]thiophen-6-ylmethyl)-amino]-methyl}-benzylamino)-phenyl-acetic acid]
28 | 0.101 to 1 | O=C(NO)c1cc2ccc(CNCC3CCC(CN[C@H](C(=O)O)c4ccccc4)CC3)cc2s1 (stereo partly drawn) [Compound 127, (S)-[(4-{[(2-Hydroxycarbamoyl-benzo[b]thiophen-6-ylmethyl)-amino]-methyl}-cyclohexylmethyl)-amino]-phenyl-acetic acid]
29 | 0.101 to 1 | CC(C)C[C@H](NCC1CCC(CNCc2ccc3cc(C(=O)NO)sc3c2)CC1)C(=O)O (stereo partly drawn) [Compound 129, (S)-2-[(4-{[(2-Hydroxycarbamoyl-benzo[b]thiophen-6-ylmethyl)-amino]-methyl}-cyclohexylmethyl)-amino]-4-methyl-pentanoic acid]

System: Hela cancer cell line
Test: Cell inhibition assay (SRB cell viability), Hela
Format: cell-based
Conditions: Homo sapiens, HeLa, 72 h, Hela cells, IC50 range
Description: The corresponding cancer cell lines (Hela, U937 and HUT) growing in log phase were harvested and seeded at 1000 cells/well (200 ul final volume) into 96-well tissue culture plates. Following 24 h of cell growth cells were treated with compounds (final concentration of 20 uM). Plates were then re-incubated for a further 72 h before a sulphorhodamine B (SRB) cell viability assay was conducted according to Skehan 1990 J Natl Canc Inst 82, 1107-1112.
Data were expressed as a percentage inhibition of the control, measured in the absence of inhibitor, as follows:— % inhibition=100−((S^i/S^o)×100) where S^i is the signal in the presence of inhibitor and S^o is the signal in the presence of DMSO. IC50 values were determined by non-linear regression analysis, after fitting the results of eight data points to the equation for sigmoidal dose response with variable slope (% activity against log concentration of compound), using Graphpad Prism software. […] NT=Not tested

Row | IC50 [µM] | SMILES
30 | > 3.3 | O=C(CCCCCCC(=O)Nc1cccc(CN[C@@H](Cc2ccccc2)C(=O)O)c1)NO [Compound 27, (S)-2-[3-(7-Hydroxycarbamoyl-heptanoylamino)-benzylamino]-3-phenyl-propionic acid]
31 | > 3.3 | O=C(CCCCCCC(=O)Nc1cccc(CN[C@@H](CCc2ccccc2)C(=O)O)c1)NO [Compound 30, (S)-2-[3-(7-Hydroxycarbamoyl-heptanoylamino)-benzylamino]-4-phenyl-butyric acid]

Row | SMILES | IC50 [µM]
32 | CC(C)(C)OC[C@H](NCc1cccc(NC(=O)CCCCCCC(=O)NO)c1)C(=O)O [Compound 33, (S)-3-tert-Butoxy-2-[3-(7-hydroxycarbamoyl-heptanoylamino)-benzylamino]-propionic acid] | > 3.3
